In PMC9898036, “VIP152 is a selective CDK9 inhibitor with pre-clinical in vitro and in vivo efficacy in chronic lymphocytic leukemia” (Leukemia, 2022):

Legend:
MLK2 = MLK2 (Homo sapiens, UniProt Q02779); assay: KINOMEscan: MLK2; assay type: binding; details: 1000 nM, read-out: Percent Control
MLK1 = MLK1 (Homo sapiens, UniProt P80192); assay: KINOMEscan: MLK1; assay type: binding; details: 1000 nM, read-out: Percent Control
KIT = KIT (Homo sapiens, UniProt P10721); assay: KINOMEscan: KIT; assay type: binding; details: 1000 nM, read-out: Percent Control
ICK = ICK (Homo sapiens, UniProt Q9UPZ9); assay: KINOMEscan: ICK; assay type: binding; details: 1000 nM, read-out: Percent Control
ACVR1B = ACVR1B (Homo sapiens, UniProt P36896); assay: KINOMEscan: ACVR1B; assay type: binding; details: 1000 nM, read-out: Percent Control
JNK2 = JNK2 (Homo sapiens, UniProt P45984); assay: KINOMEscan: JNK2; assay type: binding; details: 1000 nM, read-out: Percent Control
JNK2, sequence (P45984 whole entry): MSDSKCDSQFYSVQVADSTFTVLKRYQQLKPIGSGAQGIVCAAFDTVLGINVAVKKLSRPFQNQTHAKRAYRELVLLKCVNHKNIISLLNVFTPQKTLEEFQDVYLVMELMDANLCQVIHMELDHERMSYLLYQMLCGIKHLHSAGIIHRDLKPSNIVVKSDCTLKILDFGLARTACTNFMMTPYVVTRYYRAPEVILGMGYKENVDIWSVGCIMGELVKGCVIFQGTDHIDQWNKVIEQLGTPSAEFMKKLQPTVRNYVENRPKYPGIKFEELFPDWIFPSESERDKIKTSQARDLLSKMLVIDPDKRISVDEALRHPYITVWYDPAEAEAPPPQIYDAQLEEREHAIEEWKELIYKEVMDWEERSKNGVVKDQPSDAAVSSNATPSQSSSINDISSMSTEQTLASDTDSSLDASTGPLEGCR

RET(V804L) = RET(V804L) (Homo sapiens, UniProt P07949, V804L); assay: KINOMEscan: RET(V804L); assay type: binding; details: 100 nM, read-out: Percent Control
MET(M1250T) = MET(M1250T) (Homo sapiens, UniProt P08581, M1250T); assay: KINOMEscan: MET(M1250T); assay type: binding; details: 1000 nM, read-out: Percent Control
CDK4-cyclinD1 = CDK4-cyclinD1 (Homo sapiens, UniProt P11802); assay: KINOMEscan: CDK4-cyclinD1; assay type: binding; details: 1000 nM, read-out: Percent Control
CDK4-cyclinD1, sequence (P11802 whole entry): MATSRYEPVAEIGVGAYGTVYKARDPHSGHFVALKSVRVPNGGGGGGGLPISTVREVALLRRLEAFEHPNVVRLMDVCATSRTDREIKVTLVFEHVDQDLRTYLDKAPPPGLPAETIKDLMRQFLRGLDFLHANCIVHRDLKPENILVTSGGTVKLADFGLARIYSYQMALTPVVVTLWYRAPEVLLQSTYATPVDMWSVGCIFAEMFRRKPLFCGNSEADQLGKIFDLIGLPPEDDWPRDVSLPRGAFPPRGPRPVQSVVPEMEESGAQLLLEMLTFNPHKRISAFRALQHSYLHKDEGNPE
CDK4-cyclinD1, sequence (P24385 whole entry partner): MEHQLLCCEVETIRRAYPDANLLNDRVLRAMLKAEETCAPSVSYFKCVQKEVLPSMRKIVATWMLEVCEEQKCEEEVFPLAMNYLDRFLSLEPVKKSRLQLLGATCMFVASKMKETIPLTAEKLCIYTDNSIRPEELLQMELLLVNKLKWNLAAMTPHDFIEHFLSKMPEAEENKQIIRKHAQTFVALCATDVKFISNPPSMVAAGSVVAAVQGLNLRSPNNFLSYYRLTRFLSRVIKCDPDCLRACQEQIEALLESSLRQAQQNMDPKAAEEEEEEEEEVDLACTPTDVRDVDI

DRAK2 = DRAK2 (Homo sapiens, UniProt O94768); assay: KINOMEscan: DRAK2; assay type: binding; details: 1000 nM, read-out: Percent Control
EPHB4 = EPHB4 (Homo sapiens, UniProt P54760); assay: KINOMEscan: EPHB4; assay type: binding; details: 1000 nM, read-out: Percent Control
GSK3α = GSK3α (Homo sapiens, UniProt P49840); assay: HotSpot radiometric kinase assay; assay type: biochemical; parameters: purchased ReactionBio; details: 10-dose series from 0.5 nM to 10 µM; vs dinaciclib, KB-0742, atuveciclib
GSK3α, sequence (P49840 whole entry): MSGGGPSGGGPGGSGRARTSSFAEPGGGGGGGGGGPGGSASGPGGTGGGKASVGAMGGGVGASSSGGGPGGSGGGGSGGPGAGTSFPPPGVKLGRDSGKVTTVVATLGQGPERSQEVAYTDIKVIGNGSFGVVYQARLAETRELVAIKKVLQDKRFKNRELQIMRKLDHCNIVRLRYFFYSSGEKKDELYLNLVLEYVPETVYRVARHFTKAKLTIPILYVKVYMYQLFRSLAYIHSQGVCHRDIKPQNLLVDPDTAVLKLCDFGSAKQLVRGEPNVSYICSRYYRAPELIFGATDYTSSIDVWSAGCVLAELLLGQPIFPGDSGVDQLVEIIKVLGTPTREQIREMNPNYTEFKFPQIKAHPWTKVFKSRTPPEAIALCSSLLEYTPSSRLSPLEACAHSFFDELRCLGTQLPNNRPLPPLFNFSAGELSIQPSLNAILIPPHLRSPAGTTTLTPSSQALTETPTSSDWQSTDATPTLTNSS
Procedure: (§1) We next compared VIP152 to other CDK inhibitors currently in development. […] The compounds were tested in a 10-dose series from 0.5 nM to 10 µM against CDK9 in complex with Cyclin T1/T2/K, CDK7/Cyclin H, and GSK3α/β.
(§2) Kinomescan Kinase Profiling Assay
(§3) Kinomescan Assay was performed at DiscoverRX and described in Fabian, et al. 2005, Nat.
(§4) Biotechnol. In brief, kinases were produced and subsequently tagged with DNA for qPCR detection.
(§5) Streptavidin-coated magnetic beads were bound to biotinylated kinase ligands to serve as a solid support.
(§6) VIP152 was dissolved in DMSO and tested across a 10 serial threefold dilution set and compared to a test […]
(§7) compound and a DMSO control.
(§8) Kinome map was produced via TreeSpot
(§9) Analysis from DiscoverRX.
(§10) HotSpot Kinase Assay Protocol
(§11) Compounds tested via HotSpot Kinase Assay were sent to ReactionBio for the experiment. The […]
(§12) Kinase substrate was added to reaction buffer (20 mM Hepes (pH 7.5), 10 mM MgCl2, 1 mM EGTA, 0.01% Brij35, 0.02 mg/ml BSA, 0.1 mM Na3VO4, 2 mM DTT, 1% DMSO). Cofactors and kinases were gently added to the reaction buffer. Compounds to be tested were dissolved in 100% DMSO and were delivered into the kinase reaction mixture by Acoustic technology (Echo550; nanoliter range) and incubated for 20 min at room temperature. […] Kinase activity was detected by P81 filter-binding method. […]

CDK7/Cyclin H = CDK7/Cyclin H (Homo sapiens, UniProt P50613); assay: HotSpot radiometric kinase assay; assay type: biochemical; parameters: purchased ReactionBio
Procedure: as §1, §2, §3, §4, §5, §6, §7, §8, §9, §10, §11, §12

ERK8 = ERK8 (Homo sapiens, UniProt Q8TD08); assay: KINOMEscan: ERK8; assay type: binding; details: 1000 nM, read-out: Percent Control
Dopamine D2S = Dopamine D2S (Homo sapiens, UniProt P14416); assay: Eurofins Diversity Panel; assay type: binding; details: hum, Conc. 10 μM
EGFR = EGFR (Homo sapiens, UniProt P00533); assay: KINOMEscan: EGFR; assay type: binding; details: 1000 nM, read-out: Percent Control
EGFR, sequence (P00533 25-1210): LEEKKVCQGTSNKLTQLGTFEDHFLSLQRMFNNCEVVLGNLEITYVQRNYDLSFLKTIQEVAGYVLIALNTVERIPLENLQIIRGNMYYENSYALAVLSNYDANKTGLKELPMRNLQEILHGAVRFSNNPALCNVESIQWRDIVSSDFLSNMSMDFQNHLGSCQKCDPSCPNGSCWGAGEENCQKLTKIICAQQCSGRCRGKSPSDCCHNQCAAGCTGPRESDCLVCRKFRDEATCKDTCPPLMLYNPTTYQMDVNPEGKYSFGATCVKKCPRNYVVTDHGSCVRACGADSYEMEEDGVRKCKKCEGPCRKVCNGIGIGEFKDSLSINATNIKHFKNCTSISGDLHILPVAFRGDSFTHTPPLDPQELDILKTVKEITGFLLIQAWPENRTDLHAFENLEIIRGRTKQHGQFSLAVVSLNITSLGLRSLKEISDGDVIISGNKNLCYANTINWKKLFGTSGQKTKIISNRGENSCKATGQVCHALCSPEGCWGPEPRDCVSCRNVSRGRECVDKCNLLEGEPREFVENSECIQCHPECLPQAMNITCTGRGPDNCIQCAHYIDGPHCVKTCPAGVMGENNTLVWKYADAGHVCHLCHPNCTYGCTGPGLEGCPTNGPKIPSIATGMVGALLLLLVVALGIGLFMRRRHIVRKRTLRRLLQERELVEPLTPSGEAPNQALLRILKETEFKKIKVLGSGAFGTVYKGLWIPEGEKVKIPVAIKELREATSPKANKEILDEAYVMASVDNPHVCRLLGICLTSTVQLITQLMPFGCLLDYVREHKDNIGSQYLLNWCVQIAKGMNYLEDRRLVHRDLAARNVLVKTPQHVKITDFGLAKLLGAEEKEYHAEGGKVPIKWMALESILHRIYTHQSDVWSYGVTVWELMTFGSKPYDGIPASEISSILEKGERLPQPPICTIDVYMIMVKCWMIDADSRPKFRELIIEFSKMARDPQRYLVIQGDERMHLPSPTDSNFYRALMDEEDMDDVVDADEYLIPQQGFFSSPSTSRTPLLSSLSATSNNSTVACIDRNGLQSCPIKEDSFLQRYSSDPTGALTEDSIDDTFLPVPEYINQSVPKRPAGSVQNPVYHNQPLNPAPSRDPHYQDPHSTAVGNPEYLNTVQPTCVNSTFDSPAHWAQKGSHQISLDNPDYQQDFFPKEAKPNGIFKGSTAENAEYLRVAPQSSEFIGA

MEK3 = MEK3 (Homo sapiens, UniProt P46734); assay: KINOMEscan: MEK3; assay type: binding; details: 1000 nM, read-out: Percent Control
AMPK-alpha1 = AMPK-alpha1 (Homo sapiens, UniProt Q13131); assay: KINOMEscan: AMPK-alpha1; assay type: binding; details: 1000 nM, read-out: Percent Control
[1] = target: JAK1(JH1domain-catalytic) (Homo sapiens, UniProt P23458); assay: KINOMEscan: JAK1(JH1domain-catalytic); assay type: binding; details: 1000 nM, read-out: Percent Control
JAK1(JH1domain-catalytic), sequence (P23458 875-1154 limits assumed): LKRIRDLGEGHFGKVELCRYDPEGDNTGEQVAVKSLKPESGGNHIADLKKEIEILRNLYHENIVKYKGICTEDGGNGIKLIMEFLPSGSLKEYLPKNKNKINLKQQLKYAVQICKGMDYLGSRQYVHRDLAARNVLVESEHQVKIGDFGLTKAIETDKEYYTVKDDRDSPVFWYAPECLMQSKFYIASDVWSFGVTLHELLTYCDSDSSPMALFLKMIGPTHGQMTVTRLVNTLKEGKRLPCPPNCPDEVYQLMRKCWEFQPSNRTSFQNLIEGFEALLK

Dopamine D3 = Dopamine D3 (Homo sapiens, UniProt P35462); assay: Eurofins Diversity Panel; assay type: binding; details: hum, Conc. 10 μM
AURKA = AURKA (Homo sapiens, UniProt O14965); assay: KINOMEscan: AURKA; assay type: binding; details: 1000 nM, read-out: Percent Control
SRPK3 = SRPK3 (Homo sapiens, UniProt Q9UPE1); assay: KINOMEscan: SRPK3; assay type: binding; details: 100 nM, read-out: Percent Control
IGF1R = IGF1R (Homo sapiens, UniProt P08069); assay: KINOMEscan: IGF1R; assay type: binding; details: 1000 nM, read-out: Percent Control

MLK2, sequence (Q02779 whole entry): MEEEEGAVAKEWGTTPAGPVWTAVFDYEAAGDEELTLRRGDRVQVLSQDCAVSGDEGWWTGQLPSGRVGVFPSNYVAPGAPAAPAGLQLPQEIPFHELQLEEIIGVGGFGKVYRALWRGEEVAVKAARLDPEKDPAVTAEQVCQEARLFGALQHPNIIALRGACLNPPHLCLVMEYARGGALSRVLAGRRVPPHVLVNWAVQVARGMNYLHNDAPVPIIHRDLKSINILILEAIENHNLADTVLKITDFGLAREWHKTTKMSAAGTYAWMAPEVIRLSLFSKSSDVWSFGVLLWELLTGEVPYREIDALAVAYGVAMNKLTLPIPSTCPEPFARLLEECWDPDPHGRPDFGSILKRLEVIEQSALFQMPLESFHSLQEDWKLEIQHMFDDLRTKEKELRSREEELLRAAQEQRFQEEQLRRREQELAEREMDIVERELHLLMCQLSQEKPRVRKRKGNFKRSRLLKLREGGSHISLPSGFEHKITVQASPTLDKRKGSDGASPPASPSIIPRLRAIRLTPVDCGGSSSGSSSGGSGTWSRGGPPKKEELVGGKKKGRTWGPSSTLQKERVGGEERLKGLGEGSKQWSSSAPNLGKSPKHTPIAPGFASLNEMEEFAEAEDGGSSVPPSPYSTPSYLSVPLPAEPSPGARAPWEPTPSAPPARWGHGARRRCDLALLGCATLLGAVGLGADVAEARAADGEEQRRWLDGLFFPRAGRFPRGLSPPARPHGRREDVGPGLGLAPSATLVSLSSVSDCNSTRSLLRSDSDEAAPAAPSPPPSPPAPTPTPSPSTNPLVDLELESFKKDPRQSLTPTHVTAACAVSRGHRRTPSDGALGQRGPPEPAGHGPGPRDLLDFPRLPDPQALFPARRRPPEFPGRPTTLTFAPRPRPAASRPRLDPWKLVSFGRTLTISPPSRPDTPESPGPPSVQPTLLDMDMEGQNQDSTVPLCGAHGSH
MLK1, sequence (P80192 whole entry): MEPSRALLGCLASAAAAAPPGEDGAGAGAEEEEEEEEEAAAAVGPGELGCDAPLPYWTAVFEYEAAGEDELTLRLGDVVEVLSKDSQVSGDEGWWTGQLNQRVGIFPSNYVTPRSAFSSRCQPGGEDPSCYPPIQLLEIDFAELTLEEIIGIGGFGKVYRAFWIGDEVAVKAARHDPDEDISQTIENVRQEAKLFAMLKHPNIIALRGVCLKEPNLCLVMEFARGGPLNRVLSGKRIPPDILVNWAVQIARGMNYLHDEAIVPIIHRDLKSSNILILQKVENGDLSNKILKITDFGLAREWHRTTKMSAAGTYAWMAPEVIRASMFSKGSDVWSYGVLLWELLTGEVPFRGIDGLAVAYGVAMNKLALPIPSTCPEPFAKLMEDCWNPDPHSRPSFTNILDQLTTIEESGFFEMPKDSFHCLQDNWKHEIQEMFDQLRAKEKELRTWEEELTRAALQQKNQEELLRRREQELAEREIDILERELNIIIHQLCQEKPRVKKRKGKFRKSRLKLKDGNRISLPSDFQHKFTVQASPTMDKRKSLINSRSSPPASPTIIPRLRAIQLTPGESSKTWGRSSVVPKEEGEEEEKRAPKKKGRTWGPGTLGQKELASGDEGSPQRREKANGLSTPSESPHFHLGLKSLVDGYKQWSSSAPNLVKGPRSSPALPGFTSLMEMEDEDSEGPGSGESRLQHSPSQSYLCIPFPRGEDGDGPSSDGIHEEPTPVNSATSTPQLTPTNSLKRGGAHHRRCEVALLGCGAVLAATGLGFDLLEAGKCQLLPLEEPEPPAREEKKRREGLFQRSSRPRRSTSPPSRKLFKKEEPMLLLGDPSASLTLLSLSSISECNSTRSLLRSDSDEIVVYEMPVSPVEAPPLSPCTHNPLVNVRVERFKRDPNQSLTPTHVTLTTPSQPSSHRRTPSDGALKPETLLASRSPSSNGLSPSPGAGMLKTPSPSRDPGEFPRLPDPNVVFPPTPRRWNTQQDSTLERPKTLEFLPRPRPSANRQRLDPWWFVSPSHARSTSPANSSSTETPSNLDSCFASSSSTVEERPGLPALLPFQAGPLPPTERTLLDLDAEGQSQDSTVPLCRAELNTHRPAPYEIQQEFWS

COc1cc(F)ccc1-c1cc(Nc2cc(CS(C)(=N)=O)ccn2)ncc1F (centres unmarked) [VIP152] was tested, and the remaining binding at 1 µM (MLK2) was 100%, the remaining binding at 1 µM (MLK1) was 76% and the remaining binding at 1 µM (KIT) was 83%. The remaining binding at 1 µM (ICK) was 9%, the remaining binding at 1 µM (ACVR1B) was 96% and the remaining binding at 1 µM (JNK2) was 83%. The remaining binding at 0.1 µM (RET(V804L)) was 100%, the remaining binding at 1 µM (MET(M1250T)) was 27% and the remaining binding at 1 µM (CDK4-cyclinD1) was 7.8%. The remaining binding at 1 µM (DRAK2) was 100%, the remaining binding at 1 µM (EPHB4) was 100% and the “potency versus the other inhibitors tested” value (GSK3α) was “higher potency”. The IC50 (CDK7/Cyclin H) was > 10 µM, the remaining binding at 1 µM (ERK8) was 58% and the inhibition at 10 µM (Dopamine D2S) was 15%. The remaining binding at 1 µM (EGFR) was 81%, the remaining binding at 1 µM (MEK3) was 84% and the remaining binding at 1 µM (AMPK-alpha1) was 91%. It also gave a remaining binding at 1 µM [1] of 96%, an inhibition at 10 µM (Dopamine D3) of 7% and a remaining binding at 1 µM (AURKA) of 41%. The remaining binding at 0.1 µM (SRPK3) was 100% and the remaining binding at 1 µM (IGF1R) was 100%.
